Patent publication US20250243344A1, “COMPOUND, RUBBER BLEND CONTAINING THE COMPOUND, VEHICLE TIRE COMPRISING THE RUBBER BLEND IN AT LEAST ONE COMPONENT, PROCESS FOR PREPARING THE COMPOUND, AND USE OF THE COMPOUND AS AN ANTI-AGING AGENT AND/OR ANTIOXIDANT” (Continental Reifen Deutschland GmbH, priority 2022, published 2025)

Assay: Measurement of oxidation induction time (OIT) by DSC
Settings: for Time at 180° C. (time to oxidation, oxidation induction time): isothermal 180° C., with liquid polyisoprene LIR-50, O2 atmosphere 50 ml/min, DSC peak
Protocol: The compound of formula III) was investigated under laboratory conditions for its potential protective effect as an aging stabilizer by measurement of the oxidation induction time.
To this end the compounds of formula III) and 6PPD in each case together with a polymer (liquid synthetic polyisoprene (IR), LIR-50, Kuraray, weight average molecular weight distribution Mw=54 000 g/mol, glass transition temperature Tg=−63° C.) were heated at constant temperature (180° C.) until onset of oxidation (start temperature 35° C., heating to 170° C. at a heating rate of 20 K/min (kelvin per minute), heating to 180° C. at a heating rate of 1 K/min; purge gas: nitrogen (N2), volume flow 50 ml/min).
The specimen was kept under isothermal conditions at 180° C. under an N2 atmosphere for 5 minutes and the atmosphere was then switched to an O2 atmosphere (volume flow 50 ml/min).
Oxidation was determined via a peak using DSC (differential scanning calorimetry).
The time in minutes to oxidation was measured.

SMILES | Time at 180° C. (time to oxidation, oxidation induction time) [min] | antioxidant effect compared to 6PPD (at 180° C., taking into account measurement accuracy of ± 10 minutes)
CC(C)CC(C)Nc1ccc(Nc2ccccc2)cc1 (stereo not drawn) [Formula 6PPD, N-(1,3-dimethylbutyl)-N′-phenyl-p-phenylenediamine, reference compound] | 116 ± 10 | 
CC(C)CC(C)Nc1ccc2[nH]c3c(c2c1)CCCC3 (stereo not drawn) [Formula III), 6-(1,3-dimethylbutylamino)-2,3,4,9-tetrahydro-1H-carbazole] | 119 ± 10 | comparable antioxidant effect to 6PPD
